Results: publication PMC10551045 (Journal of the American Chemical Society, 2023)
Read-outs that look alike come from different tables or passages of the source.

Assays:
[1] = test system: GBM-F; experiment: cell killing, GBM-F patient-derived GBM CSC line; type: cell-based, human; details: for IC50: read-out: GBM-F IC50
[2] = test system: GBM-A; experiment: cell killing, GBM-A patient-derived GBM CSC line; type: cell-based, human; details: for IC50: read-out: GBM-A IC50
[3] = test system: U87-EGFRvIII cells; experiment: Cell-titer glo cell viability in U87-EGFRvIII cells after shRNA knockdown; type: cell-based; details: for IC50: read-out: 24-hour IC50 value; for cell viability on loss of RIPK2 / sensitivity following shRNA-mediated RIPK1 knockdown: U87-EGFRvIII; for cell viability on loss of RIPK2: RIPK2 shRNA vs control, YM155 20 nM, aYM155 160 nM; for sensitivity following shRNA-mediated RIPK1 knockdown: induced tumor cell death
[4] = brain tissue distribution pharmacokinetic study; details: 10 mg/kg, P.O., CD-1 mice
[5] = test system: primary human lung fibroblasts (HLF); experiment: cytotoxicity in control primary human lung fibroblasts; type: cell-based; details: read-out: HLF IC50
[6] = test system: Casp-3/7; experiment: Caspase-Glo 3/7 assay in HT-1080 cells; type: cell-based; details: for Casp3/7 activation on SLC35F2 shRNA knockdown: HT-1080; for Casp-3/7 activation in RIPK2 shRNA knockdown cells vs non-targeting control: HT-1080, 8 hours; for Casp-3/7 activation: HT-1080, 8 hours of treatment
[7] = test system: LN229; experiment: cytotoxicity in hyper-MGMT methylated cell line; type: cell-based
[8] = test system: Survivin; experiment: Western blot of survivin in U87-EGFRvIII cells after shRNA RIPK2 knockdown; type: cell-based; details: U87MG stably expressing EGFRvIII, 100 nM, 24 hours
[9] = test system: IκBα phosphorylation; experiment: IκBα phosphorylation after NOD2 stimulation with L-18 MDP; type: cell-based; details: U87EGFRvIII cells, pretreatment 100nM, L-18 MDP stimulation
[10] = test system: U118MG; experiment: cytotoxicity in hypo-MGMT methylated cell line; type: cell-based; details: read-out: U118MG IC50
[11] = target: T1, recombinant human full-length RIPK2 (Homo sapiens, UniProt O43353); experiment: in vitro competitive binding, UV-dependent labeling of RIPK2 by cRIPGBM-PAP
[12] = test system: Survivin; experiment: Western blot of survivin in HT-1080 cells after shRNA RIPK2 knockdown; type: cell-based; details: 24 hours
[13] = test system: HT-1080 fibrosarcoma cells; experiment: cytotoxicity in HT-1080 fibrosarcoma cells; type: cell-based; details: Homo sapiens, HT-1080, read-out: HT-1080 IC50
[14] = test system: primary human astrocytes (HA); experiment: cytotoxicity in control primary human astrocytes; type: cell-based; details: for IC50: read-out: HA IC50
[15] = test system: control neural cell types; experiment: cytotoxicity in control neural cell types; type: cell-based, human; details: read-out: IC50 in control neural cell types
[16] = test system: HT-1080 cells; experiment: Cell-titer glo cell viability in HT-1080 cells after shRNA RIPK2 knockdown; type: cell-based; details: HT-1080, RIPK2 shRNA vs control, 24 hours; YM155 4 nM, aYM155 40 nM
[17] = test system: Casp-1; experiment: Casp-1 activation in cells; type: cell-based; details: HT-1080, EGFRvIII amplified U87MG cells and GBM CSCs
[18] = test system: WA09 human ES cell-derived neural progenitor cells (NPC); experiment: cytotoxicity in control neural progenitor cells; type: cell-based; details: for IC50: read-out: NPC IC50
[19] = target: hERG channel (Homo sapiens, UniProt Q12809); experiment: hERG channel inhibition assay; type: biochemical; details: at 3 μM, highest tested concentration
[20] = test system: GBM CSCs and non-diseased cells; experiment: MS-based metabolite identification of aYM155 activation in cells; type: cell-based, human; details: 100 nM, 24 hours
[21] = test system: U87EGFRvIII intracranial xenografts; experiment: orthotopic intracranial GBM xenograft, tumor growth by FMT; type: in vivo, athymic nude mice; details: oral, 5mg/kg and 15 mg/kg, B.I.D.
[22] = test system: survivin mRNA; type: in vivo, athymic nude mice; details: 1 hour after last dose of 9-day regimen
[23] = two-week mouse tolerability study; type: in vivo; details: oral, 1.0 and 5.0 mg/kg B.I.D., two weeks, naïve animals
[24] = target: T1, recombinant human full-length RIPK2; details: read-out: apparent Kd for RIPK2; cited from earlier work

T1 sequence (O43353 whole entry): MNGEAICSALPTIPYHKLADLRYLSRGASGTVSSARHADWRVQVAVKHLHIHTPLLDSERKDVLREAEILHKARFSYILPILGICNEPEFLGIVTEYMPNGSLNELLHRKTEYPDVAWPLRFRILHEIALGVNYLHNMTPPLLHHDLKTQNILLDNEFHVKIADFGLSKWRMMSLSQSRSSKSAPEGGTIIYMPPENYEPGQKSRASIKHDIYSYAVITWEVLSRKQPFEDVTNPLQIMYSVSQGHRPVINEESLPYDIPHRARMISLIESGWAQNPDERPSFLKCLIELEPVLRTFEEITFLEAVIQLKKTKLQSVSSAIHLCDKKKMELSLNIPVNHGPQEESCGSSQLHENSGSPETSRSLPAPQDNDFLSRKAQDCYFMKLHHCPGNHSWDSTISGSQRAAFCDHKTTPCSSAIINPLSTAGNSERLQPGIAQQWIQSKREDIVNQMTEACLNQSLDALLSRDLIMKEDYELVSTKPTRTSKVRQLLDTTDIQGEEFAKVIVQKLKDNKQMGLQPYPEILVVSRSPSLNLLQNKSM
Sequence of hERG channel (Q12809 whole entry): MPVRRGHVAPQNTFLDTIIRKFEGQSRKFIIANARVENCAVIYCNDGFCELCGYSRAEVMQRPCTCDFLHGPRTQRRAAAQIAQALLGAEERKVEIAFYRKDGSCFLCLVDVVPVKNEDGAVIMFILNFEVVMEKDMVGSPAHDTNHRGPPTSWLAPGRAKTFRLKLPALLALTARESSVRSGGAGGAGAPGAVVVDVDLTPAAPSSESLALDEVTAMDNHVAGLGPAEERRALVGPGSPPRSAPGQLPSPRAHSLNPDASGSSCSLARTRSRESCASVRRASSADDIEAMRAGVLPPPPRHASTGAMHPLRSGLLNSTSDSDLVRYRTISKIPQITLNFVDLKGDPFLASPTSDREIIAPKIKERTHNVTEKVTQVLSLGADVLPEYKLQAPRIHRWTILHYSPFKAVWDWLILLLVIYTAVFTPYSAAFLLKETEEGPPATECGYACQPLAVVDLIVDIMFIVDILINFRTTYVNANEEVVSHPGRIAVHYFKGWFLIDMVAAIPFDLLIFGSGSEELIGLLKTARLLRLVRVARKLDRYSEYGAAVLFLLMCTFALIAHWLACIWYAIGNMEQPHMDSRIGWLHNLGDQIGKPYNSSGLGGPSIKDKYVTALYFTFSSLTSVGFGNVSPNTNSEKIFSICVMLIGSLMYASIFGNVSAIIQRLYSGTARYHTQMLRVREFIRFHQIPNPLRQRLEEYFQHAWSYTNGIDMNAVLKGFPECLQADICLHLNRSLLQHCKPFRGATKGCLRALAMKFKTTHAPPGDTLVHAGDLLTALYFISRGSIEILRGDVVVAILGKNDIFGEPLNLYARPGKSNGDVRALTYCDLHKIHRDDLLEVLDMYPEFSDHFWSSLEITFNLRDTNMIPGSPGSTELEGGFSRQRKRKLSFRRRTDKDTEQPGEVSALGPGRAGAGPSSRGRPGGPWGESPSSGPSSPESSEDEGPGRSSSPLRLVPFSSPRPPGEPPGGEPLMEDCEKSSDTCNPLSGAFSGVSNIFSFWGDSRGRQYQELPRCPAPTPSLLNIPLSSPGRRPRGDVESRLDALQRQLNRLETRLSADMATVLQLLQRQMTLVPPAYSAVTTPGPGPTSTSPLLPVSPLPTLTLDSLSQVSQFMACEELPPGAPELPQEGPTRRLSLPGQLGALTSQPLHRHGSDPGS

## CC(=O)N(Cc1ccc(F)cc1)C1=C(NCc2ccccc2)C(=O)c2ccccc2C1=O [RIPGBM]
[1]; cell killing
  IC50: 400 nM
[2]; cell killing, 72 hours
  IC50: 200 nM

## COCCn1c2c([n+](Cc3cnccn3)c1C)C(=O)c1ccccc1C2=O [YM155, sepantronium bromide]
[3]; 24 h
  IC50: 20 nM
[3]; 24 hours
  cell viability on loss of RIPK2: significant rescue of cell viability
[3]
  sensitivity following shRNA-mediated RIPK1 knockdown: No significant differences in sensitivity
[4]
  brain exposure: no brain exposure above limits of quantification
[5]; Homo sapiens, Fibroblast
  IC50: 92 nM
[6]
  Casp3/7 activation on SLC35F2 shRNA knockdown: ablated
  Casp-3/7 activation in RIPK2 shRNA knockdown cells vs non-targeting control: significantly reduced
  Casp-3/7 activation: Casp-3/7 activation was observed
[7]; Homo sapiens, LN-229, read-out: LN229 IC50
  IC50: 2.8 nM
[8]
  survivin expression on RIPK2 knockdown: significant rescue of survivin expression
[9]
  IKK activation (IκBα phosphorylation): reduced IKK activation
[10]; Homo sapiens, U-118-MG
  IC50: 3.7 nM
[11]
  potency of inhibition of cRIPGBM-PAP RIPK2 labeling relative to cRIPGBM: ~ 10 fold
[11]; cRIPGBM-PAP 1 μM, at concentrations as low as 30nM
  inhibition of UV-dependent covalent labeling of RIPK2 by cRIPGBM-PAP: at least 50%
[1]; Homo sapiens, 72 h
  IC50: 0.78 nM
[12]; HT-1080 RIPK2 shRNA cells
  concentration required to significantly impact survivin protein levels: 100 nM
[12]; HT-1080 non-targeting shRNA control cells
  concentration giving significant reduction of survivin protein levels: 10 nM
[13]
  IC50: 3.1 nM
[14]; Homo sapiens, Astrocyte, 72 h
  IC50: 5.1 nM
[2]; Homo sapiens, 72 h
  IC50: 4.5 nM
[15]; Homo sapiens
  IC50: 5 nM
[16]
  cell viability on loss of RIPK2: significant rescue of cell viability
[17]
  Casp-1 activation: time dependent activation of Casp-1
[18]; Homo sapiens, 72 h
  IC50: 5 nM

## COCCN(C(C)=O)C1=C(NCc2cnccn2)C(=O)c2ccccc2C1=O [aYM155]
[3]; 24 hours
  cell viability on loss of RIPK2: significant rescue of cell viability
[3]
  sensitivity following shRNA-mediated RIPK1 knockdown: No significant differences in sensitivity
[3]; U87-EGFRvIII cells, 24 hours
  IC50: 160 nM
[4]
  brain Cmax: 32 nM
  brain/plasma concentration ratio: 0.56
[5]; control cell type
  IC50: 2000 nM
[6]
  Casp3/7 activation on SLC35F2 shRNA knockdown: ablated
  Casp-3/7 activation in RIPK2 shRNA knockdown cells vs non-targeting control: significantly reduced
  Casp-3/7 activation: Casp-3/7 activation was observed
[7]; read-out: LN229 IC50, hyper-MGMT methylated
  IC50: 12 nM
[10]; hypo-MGMT methylated
  IC50: 11 nM
[19]
  hERG channel inhibition: < 20%
[20]
  rates of conversion to YM155 in GBM CSC populations compared to non-transformed control cell types: significantly higher
[1]; GBM-F
  potency compared to YM155: ~ equivalent
[1]; cell killing, 72 hours
  IC50: 0.65 nM
[21]
  tumor growth by FMT imaging: significant inhibition of tumor growth
[22]; 5 and 15 mg/kg B.I.D.
  survivin expression levels in human tumor tissue: significantly decrease survivin expression levels
[22]
  survivin expression in normal brain tissue: no effect
[14]; HA
  fold less potent compared to YM155: 12 fold
[14]; control cell type, 72 hours
  IC50: 62 nM
[2]; GBM-A
  fold less potent compared to YM155: 2.2 fold
[2]; cell killing, 72 hours
  IC50: 10 nM
[15]; HA and NPC
  IC50: 62 to 97 nM
[16]
  cell viability on loss of RIPK2: significant rescue of cell viability
[18]; NPC
  fold less potent compared to YM155: 19 fold
[18]; control cell type, 72 hours
  IC50: 97 nM
[23]
  tolerability (weight loss and behavioral observations): well tolerated

## Cc1n(Cc2ccc(N=[N+]=[N-])cc2)c2c([n+]1CCOCCOCCNC(=O)CCCC[C@@H]1SC[C@@H]3NC(=O)N[C@@H]31)C(=O)c1ccccc1C2=O [cRIPGBM-PAP]
[24]
  Kd: 2300 nM

## Cc1n(Cc2ccc(F)cc2)c2c([n+]1Cc1ccccc1)C(=O)c1ccccc1C2=O [cRIPGBM]
[1]; cell killing
  IC50: 70 nM
[2]; cell killing, 72 hours
  IC50: 27 nM
